According to PubChem BioAssay (NCI):
“And” between values parts separate entries of the source, which are not always exact repeats. Equal entries are not always repeated.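 Method: 48-hour compound exposure of cells in 96-well plates, five concentrations, linear interpolation of endpoints. The concentration for 50% growth inhibition is given as GI50. TGI: concentration producing complete growth inhibition.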

Columns and labels:
Test in all cases: NCI-60 cell line screen, 48 h
A549 NSCLC = test system: A549 NSCLC
DLD-1 colon = test system: DLD-1 colon
KM12 colon = test system: KM12 colon
NCI-H226 lung = test system: NCI-H226 lung
UACC-257 melanoma = test system: UACC-257 melanoma
HOP-62 NSCLC = test system: HOP-62 NSCLC
M19-MEL melanoma = test system: M19-MEL melanoma
RXF 393 renal = test system: RXF 393 renal
SK-MEL-2 melanoma = test system: SK-MEL-2 melanoma
NCI/ADR-RES ovarian = test system: NCI/ADR-RES ovarian

SMILES	GI50 (A549 NSCLC)	TGI (A549 NSCLC)	GI50 (DLD-1 colon)	TGI (DLD-1 colon)	GI50 (KM12 colon)	TGI (KM12 colon)	GI50 (NCI-H226 lung)	TGI (NCI-H226 lung)	GI50 (UACC-257 melanoma)	TGI (UACC-257 melanoma)	GI50 (HOP-62 NSCLC)	TGI (HOP-62 NSCLC)	GI50 (M19-MEL melanoma)	TGI (M19-MEL melanoma)	TGI (RXF 393 renal)	TGI (SK-MEL-2 melanoma)	GI50 (SK-MEL-2 melanoma)	GI50 (NCI/ADR-RES ovarian)	TGI (NCI/ADR-RES ovarian)	GI50 (RXF 393 renal)
CC(=O)OC(C(=O)[O][Sn]([CH3])([CH3])[CH3])c1ccccc1 (stereo not drawn)	> 100 µM	> 100 µM	> 100 µM	> 100 µM	> 100 µM	> 100 µM	> 100 µM	> 100 µM	> 100 µM	> 100 µM	> 100 µM	> 100 µM	> 100 µM	> 100 µM	0.959 µM	–	–	–	–	–
C#CCN(N=O)C(=O)ON1C(=O)CCC1=O	–	> 100 µM	–	> 100 µM	–	> 100 µM	–	–	–	> 100 µM	–	> 100 µM	–	> 100 µM	> 100 µM	> 100 µM	–	–	–	–
CCCCCCNCCCNc1c2cc(OC)ccc2nc2cccc([N+](=O)[O-])c12	0.213 µM	0.393 µM and 1.08 µM	–	–	0.16 µM	0.508 µM and 0.472 µM	0.38 µM	0.716 µM and 1.41 µM	0.395 µM	1.4 µM and 1.47 µM	0.124 µM	0.371 µM and 0.449 µM	–	–	0.111 µM	0.209 µM and 0.199 µM	0.048 µM	0.555 µM	2.41 µM and 3.65 µM	–
COc1cccc(CNc2ncnc3c2ncn3C2OC(CO)C(O)C2O)c1O (stereo not drawn)	1.05 µM	> 100 µM	–	–	12.9 µM	> 100 µM	–	> 100 µM	1.91 µM	> 100 µM	0.387 µM	> 100 µM	–	–	0.36 µM	> 100 µM	0.656 µM	0.168 µM	> 100 µM	0.0438 µM
c1ccc(-c2nc3n(c2-c2ccc4c(c2)OCO4)CCC3)nc1	5.88 µM	> 25 µM	–	–	5.9 µM	> 25 µM	4.54 µM	17 µM	7.45 µM	21.9 µM	4.93 µM	> 17.6 µM	–	–	> 17.5 µM	> 25 µM	11.7 µM	0.573 µM	9.59 µM	2.45 µM
CCCN(CCC)c1ccc(C=O)c(Cl)c1	7.66 µM	> 100 µM	–	–	28.6 µM	> 83.6 µM	0.152 µM	0.322 µM	0.273 µM	0.979 µM	13.3 µM	64.9 µM	–	–	33.6 µM	44.3 µM	15 µM	29 µM	> 100 µM	14.2 µM
O=C1/C(=C\c2ccco2)Oc2ccccc21	–	> 100 µM	–	–	–	> 100 µM	–	> 100 µM	–	> 100 µM	–	> 100 µM	–	–	> 100 µM	> 100 µM	–	–	> 100 µM	–
O=C(c1ccc2ccccc2c1)c1nc2cc(F)ccc2[n+]([O-])c1C(F)(F)F	20.6 µM	53.7 µM	–	–	19 µM	39.4 µM	22.2 µM	46.5 µM	17.4 µM	35.3 µM	34.4 µM	> 100 µM	–	–	30.8 µM	35.8 µM	18.7 µM	21.2 µM	42.8 µM	14.6 µM
CSc1ncnc2c1ncn2CC(=O)C1CCC2C3CCC4=CC(=O)CCC4(C)C3CCC12C (stereo not drawn)	–	> 64.7 µM	–	–	–	9.88 µM	–	29.8 µM	–	6.09 µM	–	> 30.1 µM	–	–	> 100 µM	11.6 µM	–	–	7.57 µM	–
COc1cc(F)ccc1-c1cc(Nc2cc(CS(C)(=N)=O)ccn2)ncc1F (stereo not drawn)	0.105 µM	> 100 µM	–	–	0.0479 µM	15.6 µM	0.0375 µM	> 100 µM	0.261 µM	> 100 µM	0.0624 µM	> 100 µM	–	–	0.0536 µM	0.437 µM	0.135 µM	0.166 µM	> 36.6 µM	0.0221 µM
Cn1cc(-c2cc(-c3cn(C)c4ccc(Cl)cc34)[nH]n2)c2cc(Cl)ccc21	3.24 µM	14.4 µM	–	–	3.45 µM	22.9 µM	5.29 µM	> 100 µM	4.26 µM	34.2 µM	7.98 µM	94.8 µM	–	–	16.2 µM	6.13 µM	2.34 µM	2.25 µM	6.59 µM	3.03 µM
CCOc1ccc(N=C(NC(=O)c2ccccc2)SC)cc1	–	> 100 µM	–	> 100 µM	–	–	–	> 100 µM	–	> 100 µM	–	> 100 µM	–	> 100 µM	> 100 µM	> 100 µM	–	–	–	–
COc1ccc(-c2c(C#N)c(N)nc(N3CCOCC3)c2C#N)cc1	29.4 µM	> 100 µM	–	–	21.7 µM	87.4 µM	26.3 µM	> 100 µM	23.9 µM	82.1 µM	14.8 µM	70.4 µM	–	–	47.2 µM	> 100 µM	27.1 µM	20.6 µM	87.3 µM	16.9 µM
CCSc1ccc([C@@H]2[C@@H](O)C(=O)N2c2cc(OC)c(OC)c(OC)c2)cc1	< 0.0159 µM	80.6 µM	–	–	< 0.0133 µM	33.7 µM	0.521 µM	33.7 µM	0.0877 µM	35 µM	< 0.0125 µM	32.5 µM	–	–	52.3 µM	28.4 µM	0.0221 µM	0.0157 µM	23.9 µM	< 0.01 µM
COC(=O)c1cc(=O)nc2cc3cccccc3n12	–	> 100 µM	–	> 100 µM	–	> 100 µM	–	> 100 µM	–	> 100 µM	–	> 100 µM	–	> 100 µM	> 100 µM	–	–	–	–	–
C1=Cc2nc1c(-c1ccccc1)c1ccc([nH]1)c(-c1ccccc1)c1nc(c(-c3ccccc3)c3ccc([nH]3)c2-c2ccccc2)C=C1	–	> 100 µM	–	> 100 µM	–	> 100 µM	–	> 100 µM	–	> 100 µM	–	> 100 µM	–	> 100 µM	–	> 100 µM	–	–	–	–
CN(C)c1ccc(/C=C(\NC(=O)c2ccccc2)c2nc3ccc4c(c3[nH]2)C(=O)c2ccccc2C4=O)cc1	–	> 100 µM	–	55.7 µM	–	> 100 µM	–	–	–	> 100 µM	–	> 100 µM	–	> 100 µM	93.8 µM	> 100 µM	–	–	–	–
